Measured values taken from patent US20240116985A1, “STAPLED PEPTIDES AND METHODS THEREOF” (priority 2020, published 2024).
Converted amounts (≈) assume the structure as drawn.

Assay: Solubility in PBS
Assay type: physicochemical
Settings: not given
Procedure: After ultracentrifugation of the PBS solution, the supernatant was analyzed by HPLC and compared to an HPLC injection 50 μM peptide DMSO solution. Solubility was determined by: [(Area of PBS peak)/(Area of DMSO peak)]*50 uM.

| Compound | Solubility |
| --- | --- |
| CC(=O)N1CCC[C@]12CC=CCCCC1(CCCC=CCCCOC(=O)N3CC[C@@](C(=O)N[C@@H](Cc4ccccc4)C(=O)N[C@@H](Cc4csc5ccccc45)C(=O)N[C@@H](CCC(N)=O)C(N)=O)(C3)NC(=O)[C@H](CC(C)C)NC(=O)[C@H](Cc3ccccc3)NC(=O)[C@H](C)NC(=O)[C@H](C)NC(=O)[C@H]([C@@H](C)O)NC(=O)[C@H](CC(N)=O)NC1=O)NC(=O)[C@H](CC(C)(C)C)NC(=O)[C@H](CC(=O)O)NC2=O (stereo partly drawn) [I-1294, Ac-PL3-Asp-Npg-B5-Asn-Thr-Ala-Ala-Phe-Leu-PyrS2-Phe-BztA-Gln-NH2] | 10 µM (≈ 19 µg/mL) |
| CC(=O)N1CCC[C@]12CC=CCCCC1(CCCC=CCCCOC(=O)N3CC[C@@](C(=O)N[C@@H](Cc4ccccc4)C(=O)N[C@@H](Cc4cccc5ccccc45)C(=O)N[C@@H](CCC(N)=O)C(N)=O)(C3)NC(=O)[C@H](CC(C)C)NC(=O)[C@H](Cc3ccccc3)NC(=O)[C@H](C)NC(=O)[C@H](C)NC(=O)[C@H]([C@@H](C)O)NC(=O)[C@H](CC(N)=O)NC1=O)NC(=O)[C@H](CC(C)(C)C)NC(=O)[C@H](CC(=O)O)NC2=O (stereo partly drawn) [I-1298, Ac-PL3-Asp-Npg-B5-Asn-Thr-Ala-Ala-Phe-Leu-PyrS2-Phe-1NapA-Gln-NH2] | 10 µM (≈ 18.9 µg/mL) |
| CC(=O)N1CCC[C@]12CC=CCCCC1(CCCC=CCCCOC(=O)N3CC[C@@](C(=O)N[C@@H](CC4CCCCC4)C(=O)N[C@@H](Cc4csc5ccccc45)C(=O)N[C@@H](CCC(N)=O)C(N)=O)(C3)NC(=O)[C@H](Cc3ccccc3)NC(=O)[C@H](Cc3ccccc3)NC(=O)[C@H](C)NC(=O)[C@H](C)NC(=O)[C@H](CC(=O)O)NC(=O)[C@H](CC(=O)O)NC1=O)NC(=O)[C@H](CC(C)(C)C)NC(=O)[C@H](CC(=O)O)NC2=O (stereo partly drawn) [I-1331, PL3-Asp-Npg-B5-Asp-Asp-Ala-Ala-Phe-Phe-PyrS2-Cha-BztA-Gln-NH2] | 10 µM (≈ 19.5 µg/mL) |
| CC(=O)N1CCC[C@]12CC=CCCCC1(CCCC=CCCCOC(=O)N3CC[C@@](C(=O)N[C@@H](Cc4ccccc4Cl)C(=O)N[C@@H](Cc4csc5ccccc45)C(=O)N[C@@H](CO)C(N)=O)(C3)NC(=O)[C@H](CC(C)C)NC(=O)[C@H](Cc3ccccc3)NC(=O)[C@H](C)NC(=O)[C@H](C)NC(=O)[C@H](Cc3cccc(C(=O)O)c3)NC(=O)[C@H](CC(=O)O)NC1=O)NC(=O)[C@H](CC(C)(C)C)NC(=O)[C@H](CC(=O)O)NC2=O (stereo partly drawn) [I-1333, PL3-Asp-Npg-B5-Asp-3COOHF-Ala-Ala-Phe-Leu-PyrS2-2C1F-BztA-Ser-NH2] | 10 µM (≈ 19.8 µg/mL) |
| CC(=O)N1CCC[C@]12CC=CCCCC1(CCCC=CCCCOC(=O)N3CC[C@@](C(=O)N[C@@H](Cc4ccccc4Cl)C(=O)N[C@@H](Cc4csc5ccccc45)C(=O)N[C@H](CO)[C@@H](C)O)(C3)NC(=O)[C@H](CC(C)C)NC(=O)[C@H](Cc3ccccc3)NC(=O)[C@H](C)NC(=O)[C@H](C)NC(=O)[C@H](Cc3cccc(C(=O)O)c3)NC(=O)[C@H](CC(=O)O)NC1=O)NC(=O)[C@H](CC(C)(C)C)NC(=O)[C@H](CC(=O)O)NC2=O (stereo partly drawn) [I-1334, PL3-Asp-Npg-B5-Asp-3COOHF-Ala-Ala-Phe-Leu-PyrS2-2C1F-BztA-Thro1] | 10 µM (≈ 19.8 µg/mL) |
| CC(=O)N1CCC[C@]12CC=CCCCC1(CCCC=CCCCOC(=O)N3CC[C@@](C(=O)N[C@@H](Cc4ccccc4C(F)(F)F)C(=O)N[C@@H](Cc4csc5ccccc45)C(=O)N[C@@H](CO)C(N)=O)(C3)NC(=O)[C@H](CC(C)C)NC(=O)[C@H](Cc3ccccc3)NC(=O)[C@H](C)NC(=O)[C@H](C)NC(=O)[C@H](Cc3cccc(C(=O)O)c3)NC(=O)[C@H](CC(=O)O)NC1=O)NC(=O)[C@H](CC(C)(C)C)NC(=O)[C@H](CC(=O)O)NC2=O (stereo partly drawn) [I-1336, PL3-Asp-Npg-B5-Asp-3COOHF-Ala-Ala-Phe-Leu-PyrS2-2F3MeF-BztA-Ser-NH2] | 10 µM (≈ 20.1 µg/mL) |
| CC(=O)N1CCC[C@]12CC=CCCCC1(CCCC=CCCCOC(=O)N3CC[C@@](C(=O)N[C@@H](Cc4ccccc4C(F)(F)F)C(=O)N[C@@H](Cc4csc5ccccc45)C(=O)N[C@H](CO)[C@@H](C)O)(C3)NC(=O)[C@H](CC(C)C)NC(=O)[C@H](Cc3ccccc3)NC(=O)[C@H](C)NC(=O)[C@H](C)NC(=O)[C@H](Cc3cccc(C(=O)O)c3)NC(=O)[C@H](CC(=O)O)NC1=O)NC(=O)[C@H](CC(C)(C)C)NC(=O)[C@H](CC(=O)O)NC2=O (stereo partly drawn) [I-1337, PL3-Asp-Npg-B5-Asp-3COOHF-Ala-Ala-Phe-Leu-PyrS2-2F3MeF-BztA-Thro1] | 10 µM (≈ 20.2 µg/mL) |
| CC(=O)N1CCC[C@]12CC=CCCCC1(CCCC=CCCCOC(=O)N3CC[C@@](C(=O)N[C@@H](Cc4ccccc4Cl)C(=O)N[C@@H](Cc4csc5ccccc45)C(=O)N[C@@H](CCC(N)=O)C(N)=O)(C3)NC(=O)[C@H](Cc3ccccc3)NC(=O)[C@H](Cc3ccccc3)NC(=O)[C@H](C)NC(=O)[C@H](C)NC(=O)[C@H](Cc3cccc(C(=O)O)c3)NC(=O)[C@H](CC(=O)O)NC1=O)NC(=O)[C@H](CC(C)(C)C)NC(=O)[C@H](CC(=O)O)NC2=O (stereo partly drawn) [I-1338, PL3-Asp-Npg-B5-Asp-3COOHF-Ala-Ala-Phe-Phe-PyrS2-2C1F-BztA-Gln-NH2] | 10 µM (≈ 20.6 µg/mL) |
| CC(=O)N1CCC[C@]12CC=CCCCC1(CCCC=CCCCOC(=O)N3CC[C@@](C(=O)N[C@@H](Cc4ccccc4Cl)C(=O)N[C@@H](Cc4csc5ccccc45)C(=O)N[C@@H](CO)C(N)=O)(C3)NC(=O)[C@H](Cc3ccccc3)NC(=O)[C@H](Cc3ccccc3)NC(=O)[C@H](C)NC(=O)[C@H](C)NC(=O)[C@H](Cc3cccc(C(=O)O)c3)NC(=O)[C@H](CC(=O)O)NC1=O)NC(=O)[C@H](CC(C)(C)C)NC(=O)[C@H](CC(=O)O)NC2=O (stereo partly drawn) [I-1339, PL3-Asp-Npg-B5-Asp-3COOHF-Ala-Ala-Phe-Phe-PyrS2-2C1F-BztA-Ser-NH2] | 10 µM (≈ 20.1 µg/mL) |

Same assay, conditions: Solubility (uM)

| Compound | solubility at 15 min |
| --- | --- |
| CC(=O)N1CCC[C@]12CC=CCCCC1(CCCC=CCCCOC(=O)N3CC[C@@](C(=O)N[C@@H](Cc4ccccc4Br)C(=O)N[C@@H](Cc4csc5ccccc45)C(=O)N[C@@H](CCC(N)=O)C(N)=O)(C3)NC(=O)[C@H](CC(C)C)NC(=O)[C@H](Cc3ccccc3)NC(=O)[C@H](C)NC(=O)[C@H](C)NC(=O)[C@H](CC(=O)O)NC(=O)[C@H](CC(=O)O)NC1=O)NC(=O)[C@H](CC(C)(C)C)NC(=O)[C@H](CC(=O)O)NC2=O (stereo partly drawn) [I-1324, PL3-Asp-Npg-B5-Asp-Asp-Ala-Ala-Phe-Leu-PyrS2-2BrF-BztA-Gln-NH2] | 25 µM (≈ 49.8 µg/mL) |
| CC(=O)N1CCC[C@]12CC=CCCCC1(CCCC=CCCCOC(=O)N3CC[C@@](C(=O)N[C@@H](Cc4ccccc4Br)C(=O)N[C@@H](Cc4csc5ccccc45)C(=O)N[C@@H](CCC(N)=O)C(N)=O)(C3)NC(=O)[C@H](Cc3ccccc3)NC(=O)[C@H](Cc3ccccc3)NC(=O)[C@H](C)NC(=O)[C@H](C)NC(=O)[C@H](CC(=O)O)NC(=O)[C@H](CC(=O)O)NC1=O)NC(=O)[C@H](CC(C)(C)C)NC(=O)[C@H](CC(=O)O)NC2=O (stereo partly drawn) [I-1325, PL3-Asp-Npg-B5-Asp-Asp-Ala-Ala-Phe-Phe-PyrS2-2BrF-BztA-Gln-NH2] | 12 µM (≈ 24.3 µg/mL) |
| COc1ccccc1C[C@H](NC(=O)[C@]12CCN(C1)C(=O)OCCCC=CCCCC1(CCCC=CC[C@]3(CCCN3C(C)=O)C(=O)N[C@@H](CC(=O)O)C(=O)N[C@@H](CC(C)(C)C)C(=O)N1)C(=O)N[C@@H](CC(=O)O)C(=O)N[C@@H](CC(=O)O)C(=O)N[C@@H](C)C(=O)N[C@@H](C)C(=O)N[C@@H](Cc1ccccc1)C(=O)N[C@@H](CC(C)C)C(=O)N2)C(=O)N[C@@H](Cc1csc2ccccc12)C(=O)N[C@@H](CCC(N)=O)C(N)=O (stereo partly drawn) [I-1327, PL3-Asp-Npg-B5-Asp-Asp-Ala-Ala-Phe-Leu-PyrS2-2OMeF-BztA-Gln-NH2] | 39 µM (≈ 75.7 µg/mL) |
| COc1ccccc1C[C@H](NC(=O)[C@]12CCN(C1)C(=O)OCCCC=CCCCC1(CCCC=CC[C@]3(CCCN3C(C)=O)C(=O)N[C@@H](CC(=O)O)C(=O)N[C@@H](CC(C)(C)C)C(=O)N1)C(=O)N[C@@H](CC(=O)O)C(=O)N[C@@H](CC(=O)O)C(=O)N[C@@H](C)C(=O)N[C@@H](C)C(=O)N[C@@H](Cc1ccccc1)C(=O)N[C@@H](Cc1ccccc1)C(=O)N2)C(=O)N[C@@H](Cc1csc2ccccc12)C(=O)N[C@@H](CCC(N)=O)C(N)=O (stereo partly drawn) [I-1328, PL3-Asp-Npg-B5-Asp-Asp-Ala-Ala-Phe-Phe-PyrS2-2OMeF-BztA-Gln-NH2] | 26 µM (≈ 51.4 µg/mL) |
| CC(=O)N1CCC[C@]12CC=CCCCC1(CCCC=CCCCOC(=O)N3CC[C@@](C(=O)N[C@@H](CC4CCCCC4)C(=O)N[C@@H](Cc4csc5ccccc45)C(=O)N[C@@H](CCC(N)=O)C(N)=O)(C3)NC(=O)[C@H](CC(N)=O)NC(=O)[C@H](Cc3ccccc3)NC(=O)[C@H](C)NC(=O)[C@H](C)NC(=O)[C@H](CC(=O)O)NC(=O)[C@H](CC(=O)O)NC1=O)NC(=O)[C@H](CC(C)(C)C)NC(=O)[C@H](CC(=O)O)NC2=O (stereo partly drawn) [I-1329, PL3-Asp-Npg-B5-Asp-Asp-Ala-Ala-Phe-Asn-PyrS2-Cha-BztA-Gln-NH2] | 45 µM (≈ 86.3 µg/mL) |
| CC(=O)N1CCC[C@]12CC=CCCCC1(CCCC=CCCCOC(=O)N3CC[C@@](C(=O)N[C@@H](Cc4ccccc4Cl)C(=O)N[C@@H](Cc4csc5ccccc45)C(=O)N[C@@H](CCC(N)=O)C(N)=O)(C3)NC(=O)[C@H](CC(C)C)NC(=O)[C@H](Cc3ccccc3)NC(=O)[C@H](C)NC(=O)[C@H](C)NC(=O)[C@H](Cc3cccc(C(=O)O)c3)NC(=O)[C@H](CC(=O)O)NC1=O)NC(=O)[C@H](CC(C)(C)C)NC(=O)[C@H](CC(=O)O)NC2=O (stereo partly drawn) [I-1332, PL3-Asp-Npg-B5-Asp-3COOHF-Ala-Ala-Phe-Leu-PyrS2-2C1F-BztA-Gln-NH2] | 13 µM (≈ 26.3 µg/mL) |
| CC(=O)N1CCC[C@]12CC=CCCCC1(CCCC=CCCCOC(=O)N3CC[C@@](C(=O)N[C@@H](Cc4ccccc4C(F)(F)F)C(=O)N[C@@H](Cc4csc5ccccc45)C(=O)N[C@@H](CCC(N)=O)C(N)=O)(C3)NC(=O)[C@H](CC(C)C)NC(=O)[C@H](Cc3ccccc3)NC(=O)[C@H](C)NC(=O)[C@H](C)NC(=O)[C@H](Cc3cccc(C(=O)O)c3)NC(=O)[C@H](CC(=O)O)NC1=O)NC(=O)[C@H](CC(C)(C)C)NC(=O)[C@H](CC(=O)O)NC2=O (stereo partly drawn) [I-1335, PL3-Asp-Npg-B5-Asp-3COOHF-Ala-Ala-Phe-Leu-PyrS2-2F3MeF-BztA-Gln-NH2] | 11 µM (≈ 22.6 µg/mL) |
